Experimental data: article PMC8512147, “Multifunctional Small Molecules as Potential Anti-Alzheimer’s Disease Agents” (Molecules, 2021)
Like-named read-outs stand apart in the source and are kept apart here. Each block holds one compound with its values, some of them ahead of it.

Columns and labels:
[1] = target: T1, Aβ1–42 peptide (Homo sapiens, UniProt P05067); assay: Inhibition of Cu^2+-induced Aβ1–42 aggregation, Thioflavin T fluorescence assay; format: biochemical; parameters: Amyloid-β peptide (1–42) was purchased from GeneCust; purchased GeneCust; conditions: compounds 80 μM, with copper 40 μM; ThT fluorescence; mean of two independent measurements in duplicate; read-out: Inhibition of Aβ1–42 Aggregation (%) Cu-Induced Aβ Aggr.
Experimental: (§1) The studied compounds (1a–e) were tested in vitro to evaluate their activity as inhibitors of Aβ1-42 peptide aggregation, through the Thioflavin T (ThT) fluorescence assay. This method is based on the strong ability of the dye ThT to bind β-amyloid fibrils and oligomers through ionic and hydrophobic interactions, while its interaction with β-amyloid monomers is extremely weak. The intercalation of compounds in the β-sheet structure of amyloid protein may prevent fibrils aggregation and ThT binding, and it is evaluated by fluorimetry. The fluorescence emission measurements were performed after overnight incubation of the self-mediated or Cu^2+-induced Aβ fibril aggregates with the studied compounds.
(§2) The inhibition of β-amyloid (Aβ) aggregation was studied through the Th-T fluorescence assay, which was performed using a Varian Cary Eclipse fluorimeter at the following wavelengths: excitation (446 nm) and emission (485 nm). Amyloid-β peptide (1–42) was purchased from GeneCust as lyophilized powder stored at −20 °C.
(§3) The method used is based on thioflavin T (ThT) fluorescence emission, which depends on the interaction of this dye with Aβ fibrils. The assay is performed with the Aβ1–42 peptide sample, which was previously prepared by solubilization of its lyophilized powder in 1,1,1,3,3,3–hexafluoro-2-propanol (HFIP), an organic solvent useful to solubilize and monomerize the β-sheets protein aggregates. After 24 h, the solution was divided into Eppendorf tubes kept in ice, and then, HFIP was left to evaporate overnight (T = 25 °C). The resultant films were stored in the freezer. […] Compounds were dissolved in MeOH (1 mg/mL) and diluted with phosphate buffer to reach a ligand stock solution of 480 μM. Two different types of experiments were prepared in a final volume of 60 μL: control ligand assays (Aβ1–42 aggregation in the absence of inhibitor) and ligand assays (effect of ligand on Aβ1–42 aggregation). For each experiment, a blank sample without Aβ1–42 was used to monitor the effect of the compounds in fluorescence. To study the inhibition of aggregation in the presence of Cu^2+, which is known to promote it, an intermediate stock solution of CuCl2 in phosphate buffer (240 µM) was prepared. Then, it was aliquoted to obtain a final concentration of 40 µM in the samples. All samples were incubated in a water bath for 24 h at 37 °C. Then, 180 µL of ThT (5 µM) in glycine-NaOH buffer (50 mM, pH = 8.5) is added to each solution and 200 µL of it is placed in a 96-well plate (BD Falcon) to be read with the fluorimeter. After 5 min of incubation with ThT, fluorescence was measured at 446 nm (ʎ excitation) and 485 nm (ʎ emission).

[2] = Radical scavenging activity, DPPH method; format: biochemical; conditions: MeOH, 30 min, r.t., mean ± SD of 3 independent experiments
Text: Commercial ferulic acid (FA) and all the newly synthesized compounds 1a–e were studied for their radical scavenging activity, following the protocol previously reported. The activity of each compound is expressed as EC50 and is related to its interaction with the free stable radical 2,2-diphenyl-1-picrylhydrazyl (DPPH•).
For the physicochemical and biological studies, analytical grade reagents and solvents were supplied by Sigma-Aldrich (St. Louis, MO, USA), Fluka (Buchs, Switzerland) and Acros (Geel, Belgium). They were used as received without any purification. The antioxidant activity assay was performed in a quartz cell of 1 cm path length with a Perkin-Elmer Lambda 35 UV–Vis spectrophotometer equipped with a temperature programmer PTP1+1 Peltier System (T = 25.0 ± 0.1 °C).
Compounds were evaluated for their radical scavenging activity by the Blois method using DPPH (2,2-diphenyl-1-picrylhydrazyl), a stable free-radical. It absorbs in methanol solution at 517–520 nm and it is a scavenger for other radicals converting itself in the reduced form DPPHH. The assay consists of preparing solutions of increasing concentration of each compound starting from a stock solution (2–3 × 10^−4 M), adding to them 2.5 mL DPPH (0.002% in MeOH, 50–100 µM) and the necessary volume of MeOH to reach the final volume 3.5 mL for each sample. The control sample was made up of DPPH and MeOH. Solutions were protected from light at r.t. for 30 min and then absorbance was measured at 517 nm with a Perkin Elmer Lambda 35 UV–Vis spectrophotometer, using methanolic solution as the blank in the other cell. All the studied compounds have good solubility in MeOH, so their solutions could be prepared. The assay was repeated three times for all compounds and the antioxidant activity, expressed as EC50, was calculated by Equation (1). %AA = ((ADPPH − Asample)/ADPPH) × 100,(1)

[3] = target: T1, Aβ1–42 peptide; assay: Inhibition of self-mediated Aβ1–42 aggregation, Thioflavin T fluorescence assay; format: biochemical; parameters: Amyloid-β peptide (1–42) was purchased from GeneCust; purchased GeneCust; conditions: read-out: Inhibition of Aβ1–42 Aggregation (%) Self-Aβ Aggr.
Experimental: as §1, §2, §3

[4] = Cu^2+ complexation, potentiometric / spectrophotometric titration; format: physicochemical
Text: (§4) The chelating ability of FA and of selected compounds 1a and 1d was studied by using the same experimental techniques (potentiometry, UV–Vis spectrophotometry) and experimental medium used for the titration of the ligand alone (20% w/w DMSO/water).
(§5) Alterations in the deprotonation profiles of the ligand titration curves due to the presence of the metal ions are evident in Figure 2, since the curves for the M/L systems appear well below that of FA for a > −1 (M = Fe) or a > 0 (M = Cu). This evidence supports the formation of metal complexes with the deprotonated (L^−) and mono-protonated (HL) forms of the ligand, whose stability order (Fe > Cu) follows the expected trend. Equilibrium models obtained from the fitting analysis of the potentiometric curves (M = Fe, Cu) and the UV–Vis spectral data (M = Fe, Cu) are reported in Table 2.
(§6) Both compounds 1a and 1d have similar chelating capacities towards iron and copper, which are also analogous to those of FA.
(§7) As concerns the metal chelation studies, potassium hydrogen phthalate (C8H5KO4, p.a.) was acquired from BDH, whereas dimethylsulfoxide (DMSO, dried, p.a.) and potassium chloride (KCl, p.a.) were supplied by Sigma-Aldrich. Aqueous solutions of metal ions were prepared starting from 1000 ppm standards (Titrisol, Sigma-Aldrich), to obtain solutions FeCl3 0.018 M and CuCl2 0.015 M. The metal content of solutions was evaluated by atomic absorption. Iron stock solution was prepared with an excess of acid chloride to avoid hydrolysis and its concentration in HCl was determined by the usual standard-addition method using 0.1M HCl (Titrisol). The 0.1M HCl solution, used in calibration of the glass electrode and in spectrophotometric titrations, was prepared from a Titrisol ampoule. The titrant was prepared from carbonate free commercial concentrate (Titrisol, KOH 0.1 M ampoules). The KOH solution was standardized by titration with a solution of potassium hydrogen phthalate using Gran’s method and it was rejected when the percentage of carbonate was greater than 0.5% of the total amount of base. The potentiometric studies were performed with an automated potentiometric apparatus controlled by PASAT program and containing a Crison micropH 2002 millivoltmeter, a Crison microBu 2031 burette and a Haake thermostatic bath (T = 25.0 ± 0.1 °C). The spectrophotometric titrations were carried out with a Perkin-Elmer Lambda 35 spectrophotometer.
(§8) Both glass and Ag/AgCl reference electrodes were previously conditioned in different DMSO/H2O mixtures of increasing DMSO % concentration and the response of the glass electrode was evaluated by strong acid–strong base (HCl/KOH) calibrations with the determination of the Nernst parameters by Gran’s method. […] The spectrophotometric measurements were carried out in a 250–450 nm wavelength range at pH ca. 2.5–11.8. Under the stated experimental conditions, the pKw value (14.27) was determined and subsequently used in the computations. The stepwise protonation constants of the ligands, Ki = [HiL]/[Hi-1L][H], and the overall metal complex stability constants, β (MmHhLl) = [MmHhLl]/[M]^m[H]^h[L]^l, were calculated by fitting the pH-potentiometric and spectrophotometric data with, respectively, the Hyperquad 2008 [41] and Psequad programs. The metal hydrolysis model was determined under the defined experimental conditions (I = 0.1 M KCl, 20% w/w DMSO/H2O, T = 25.0 ± 0.1 °C) and the following values of stability constants were included in the fitting of experimental data towards the equilibrium models related to the Fe^3+/L and Cu^2+/L systems: log β (FeH-2) = −6.78, log β (FeH-3) = −10.78; log β (Cu2H-2) = −9.94. The species distribution curves were obtained with the Hyss program.

[5] = Fe^3+ complexation, potentiometric / spectrophotometric titration; format: physicochemical
Text: as §4, §5, §6, §7, §8

[6] = parameters: method as in doi:10.1039/C7NJ00661F, doi:10.1016/j.tca.2004.06.016, doi:10.1021/je101075q; conditions: aqueous medium and/or different ionic strength; cited from earlier work
[7] = parameters: method as in PMID 25994066; conditions: DPPH method; read-out: Radical Scavenging Activity (EC50); cited from earlier work
[8] = target: T1, Aβ1–42 peptide; conditions: cited from earlier work
[9] = compounds 80 μM, without copper, ThT fluorescence, mean of two independent measurements in duplicate
[10] = T = 25.0 ± 0.1 °C, I = 0.1 M KCl, 20% w/w DMSO/water, pH-potentiometric (FA), UV–Vis (1a, 1d)
[11] = T = 25.0 ± 0.1 °C, I = 0.1 M KCl, 20% w/w DMSO/water, pH-potentiometric data
[12] = pH 7.4, CL/CM = 10, CM = 10^−6 M

T1 sequence (P05067 672-713): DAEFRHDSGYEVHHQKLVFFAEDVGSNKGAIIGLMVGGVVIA

SMILES: COc1cc(/C=C/C(=O)O)ccc1O [FA, (E)-4-hydroxy-3-methoxy cinnamic acid, reference compound]
log β (CumHhLl), species (1–12) [4, 10]: 1.90(8)
log β (CumHhLl), species (101) [4, 10]: 6.52(8)
log β (CumHhLl), species (102) ([4]; T = 25.0 ± 0.1 °C, I = 0.1 M KCl, 20% w/w DMSO/water, pH-potentiometric (FA), UV–Vis (1d)): 11.14(6)
log β (CumHhLl), species (111) [4, 11]: 13.30(4)
pM (Cu^2+), pM = −log [M] [4, 12]: 6.2
EC50 [2]: 36 ± 2 µM
log β (FemHhLl), species (1–22) ([5]; T = 25.0 ± 0.1 °C, I = 0.1 M KCl, 20% w/w DMSO/water): 7.81(8)
log β (FemHhLl), species (101) [5, 10]: 12.15(6)
log β (FemHhLl), species (102) [5, 10]: 20.31(6)
log β (FemHhLl), species (103) [5, 11]: 26.70(8)
pM (Fe^3+), pM = −log [M] [5, 12]: 17.4
free iron in the Fe^3+/L system ([5]; pH ca. 2, species distribution): ca. 90%
log K1 previously reported [6]: 8.77–8.94
log K2 previously reported [6]: 4.46–4.56

SMILES: O=C1O[C@H]([C@@H](O)CO)C(O)=C1O [Ascorbic acid]
EC50 [7]: 25 ± 1 µM

SMILES: Nc1c2c(nc3ccccc13)CCCC2 [Tacrine, reference compound]
Inhibition of Aβ1–42 Aggregation (%) Self-Aβ Aggr. [8]: 22.8%
inhibition at 80 µM [3]: 21.5%

Further lines, results first:

inhibition at 80 µM [1]: 69.5%
EC50 [2]: 40 ± 2 µM
inhibition at 80 µM [3, 9]: 52.8%
melting point: 63 to 65 °C
SMILES: COc1cccc(CONC(=O)/C=C/c2ccc(O)c(OC)c2)c1 [Compound 1b, (E)-3-(4-hydroxy-3-methoxyphenyl)-N-((3-methoxybenzyl)oxy)acrylamide]

inhibition at 80 µM [1]: 68.8%
EC50 [2]: 34 ± 1 µM
inhibition at 80 µM [3, 9]: 51%
melting point: 76 to 77 °C
SMILES: COc1cc(/C=C/C(=O)NOCc2ccccc2C(F)(F)F)ccc1O [Compound 1c, (E)-3-(4-hydroxy-3-methoxyphenyl)-N-((2-(trifluoromethyl)benzyl)oxy)acrylamide]

inhibition at 80 µM [1]: 77%
EC50 [2]: 32 ± 3 µM
inhibition at 80 µM [3, 9]: 28.3%
melting point: 164.3 to 166.5 °C
SMILES: COc1cc(/C=C/C(=O)NOCc2ccc(Cl)cc2Cl)ccc1O [Compound 1e, (E)-N-((2,4-dichlorobenzyl)oxy)-3-(4-hydroxy-3-methoxyphenyl)acrylamide]
